Here are results for ten molecules from patent publication US7781187B2, “Fluorescent dyes” (Corning Incorporated, priority 2005, dated 2010).

Molecules are shown by their SMILES. Where two headings read alike, the source gives them in different places.

For one data set, the system named is dsDNA (20 mer). Kind of data set: Emission intensity of dye with equimolar dsDNA relative to free dye (fluorescence spectrometer). To be noted: for direction of change in emission intensity upon addition of DNA / effect of ssDNA and dsDNA on dye emission: FIG. 2; for Free dye rel. to dsDNA: equimolar dsDNA (20 mer), emission intensity ratio. The source says: (§1) FIG. 2 illustrates the effect of ssDNA and dsDNA on dye emission. […] All the dyes reported here show a larger change in emission intensity upon the addition of dsDNA than they do upon the addition of ssDNA; in some cases (GA, 95) this change is positive, in others it is negative (HE, HE-HE, FI).
Emission intensities of the fluorescent dyes of the present invention and TOTO-1™ at 1×10^−5 M in 1×PCR buffer were compared in the absence of DNA (free dye emission) and in the presence of equimolar dsDNA or ssDNA (20 mer) on the fluorescence spectrometer. […]

For data set [1], the system named is dsDNA. The experiment in a line: ssDNA/dsDNA selectivity in the plate reader assay (FIG. 3). The source says:
FIG. 3 illustrates the ssDNA/dsDNA selectivity of the fluorescent dyes of the present invention, HE-HE and 95, versus the commercially available fluorescent dye TOTO-1™ in the plate reader assay. […] By learning more about the binding modes of the disclosed dyes, it should be possible to design and synthesize members of the family optimized for dsDNA detection.

Data set [2] concerns dsDNA. Kind of data set: Titration of dyes with dsDNA in 96-well microplate (sensitivity and dynamic range, SpectraMax Gemini plate reader). On the procedure:
The fluorescent dyes shown in Table 5 were titrated with dsDNA in order to determine the sensitivity (lowest detection limit) and dynamic range. A 96-well polystyrene Corning Costar® (a trademark of Corning Incorporated) microwell plate was loaded with 100 μL/well of dye mixed with various levels of dsDNA and incubated at room temperature for 2 hours allowing the mixture to equillibrate. The dye fluorescence was then measured on a SpectraMax® (a trademark of Molecular Devices Corp.) Gemini Plate-reader. Relative fluorescence units (RFU) were then plotted against DNA concentration in pg/μL.

The nature of data set [3]: Fluorescence excitation and emission spectra of the dyes in buffer (Fluorolog-3 spectrometer). Type of data set: physicochemical. More on the design: key to Excitation max. / Emission max.: peak wavelengths in nm. The source says:
The fluorescence of the exemplary fluorescent dyes in buffer was examined on a Fluorolog®-3 (a trademark of Spex Industries Inc.) spectrometer. The fluorescent dyes of the present invention have large Stokes shifts; the excitation and emission maxima are close to or greater than 100 nm apart. Peak wavelengths are tabulated in Table 2 along with two commercially available fluorescent dyes, TOTO-1TM and YO-[…]TM (trademarks of Molecular Probes, Inc.). The Stokes shifts of TOTO-1TM and YO-[…]TM are small in comparison to the dyes of the present invention.

In another data set the test system is ssDNA (20 mer). Kind of data set: Emission intensity of dye with equimolar ssDNA relative to free dye (fluorescence spectrometer). Conditions: dye 1×10^−5 M in 1×PCR buffer; for change of the emission intensity in the presence of ssDNA: equimolar ssDNA; for Free dye rel. to ssDNA: equimolar ssDNA (20 mer), emission intensity ratio.
Source text: as §1
Emission intensities of the fluorescent dyes of the present invention and TOTO-1™ at 1×10^−5 M in 1×PCR buffer were compared in the absence of DNA (free dye emission) and in the presence of equimolar dsDNA or ssDNA (20 mer) on the fluorescence spectrometer.
The fluorescent dyes of the present invention have a large Stokes shift allowing the use of less sophisticated equipment for the detection of the emission intensity.

A short description of data set [4]: Stokes shift of MH dyes (FIG. 4). The format is physicochemical. The source says:
Unlike Fluorescein and other commercially available dyes whose peak excitation and emission wavelengths are extremely close the MH dyes have ˜200 nm between peaks.

The test system of data set [5] is double-stranded DNA (dsDNA). To be noted: on a microplate reader; cited from earlier work.
For data set [6] the following is noted: commercial dye data from Molecular Probes catalog; cited from earlier work.
Setting [7] is: dye 1×10^−5 M in 1×PCR buffer, equimolar dsDNA.

Take `C[n+]1c(/C=C/c2ccc(N(CCO)CCO)cc2)sc2ccccc21` [Dye 95]: the “direction of change in emission intensity upon addition of DNA” value (from here on “direction of change”) with dsDNA (20 mer) was “positive”. Besides, the ssDNA/dsDNA selectivity entry with dsDNA [1] was “significant preference for dsDNA”. Also, in the data set with dsDNA [2], the “dynamic range compared with TOTO-1™” value is listed as “larger dynamic range” and the “sensitivity compared with TOTO-1™” value is given as “comparable”. Besides, in data set [3], the Emission max. is 585, the Excitation max. amounted to 500 and the Stokes shift is recorded as 85 nm.

As for `C[n+]1c(/C=C/c2ccc(SCCO)cc2)sc2ccccc21` [FI], in the data set with dsDNA (20 mer), the “direction of change” value is “negative”; the “effect of ssDNA and dsDNA on dye emission” value is “most pronounced”. Further, the “change of the emission intensity in the presence of dsDNA” value in the data set with dsDNA (20 mer) (setting [7]) is 28.7 times. Further, the “Free dye rel. to dsDNA” value in the data set with dsDNA (20 mer) (dye 1×10^−5 M in 1×PCR buffer) is on record as 28.7. Moreover, in data set [3], the Emission max. is reported as 546, the Excitation max. was found to be 382 and the Stokes shift came to 164 nm. Further, in the data set on ssDNA (20 mer), the “change of the emission intensity in the presence of ssDNA” value was “very little change” and the “Free dye rel. to ssDNA” value is reported as 0.98.

As for `CN(CCO)c1ccc(/C=C/c2sc3ccccc3[n+]2C)cc1` [GA], in the data set with dsDNA (20 mer), the “direction of change” value is on record as “positive”. In data set [3], the Emission max. is listed as 587, the Excitation max. is reported as 512 and the Stokes shift is 75 nm.

`C[n+]1c(/C=C/c2ccc(OCCOCCOCCOc3ccc(/C=C/c4sc5ccccc5[n+]4C)cc3)cc2)sc2ccccc21` [HE-HE]: in the data set on dsDNA (20 mer), the “direction of change” value was “negative”; the “effect of ssDNA and dsDNA on dye emission” value was “most pronounced”. Also, in the data set with dsDNA (20 mer) (setting [7]), the “change of the emission intensity in the presence of dsDNA” value is 13.5 times. Also, the “Free dye rel. to dsDNA” value in the data set on dsDNA (20 mer) (dye 1×10^−5 M in 1×PCR buffer) is 13.5. Besides, the ssDNA/dsDNA selectivity result with dsDNA [1] is listed as “only slightly more sensitive towards dsDNA than ssDNA”. For the same molecule, in the data set with dsDNA [2], the “dynamic range compared with TOTO-1™” value is reported as “greater dynamic range” and the “sensitivity compared with TOTO-1™” value is “more sensitive”. Besides, in data set [3], the Emission max. stood at 616, the Excitation max. is given as 400 and the Stokes shift is given as 216 nm. For the same molecule, the “Free dye rel. to ssDNA” value with ssDNA (20 mer) was found to be 1.19.

As to `COc1ccc(/C=C/c2sc3ccccc3[n+]2C)cc1` [HE], in the data set on dsDNA (20 mer), the “direction of change” value is “negative”. Further, in data set [3], the Emission max. amounted to 500, the Excitation max. came out at 385 and the Stokes shift is 115 nm.

With `CN(C)c1ccc(/C=C/c2ccc(C(=O)[O-])s2)cc1.[Li+]` [MH1], the “Stokes shift (between peak excitation and emission wavelengths)” value in data set [4] is reported as ~200 nm.

As for `O=C([O-])c1ccc(-c2ccc(/C=C/c3ccc(N(CCO)CCO)cc3)s2)s1.[Na+]` [MH3], in data set [4], the “Stokes shift (between peak excitation and emission wavelengths)” value is reported as ~200 nm.

`CN(C)CCCN(CCCN(C)C)c1cc(C=C2Sc3ccccc3N2C)c2ccccc2[n+]1-c1ccccc1` [PicoGreen™]: in data set [5], the dynamic range is listed as ~3 orders of magnitude and the “sensitivity for double-stranded DNA (dsDNA)” value is reported as 250 pg/mL.

Turning to `CN1/C(=C/c2cc[n+](CCC[N+](C)(C)CCC[N+](C)(C)CCC[n+]3ccc(/C=C4\Sc5ccccc5N4C)c4ccccc43)c3ccccc23)Sc2ccccc21.[I-].[I-].[I-].[I-]` [TOTO-1™, reference compound], the “change of the emission intensity upon interaction with dsDNA” value in the data set on dsDNA (20 mer) (setting [7]) is ~3 orders of magnitude. In addition, the “Free dye rel. to dsDNA” value in the data set with dsDNA (20 mer) (dye 1×10^−5 M in 1×PCR buffer) was found to be 0.003. In addition, in data set [6], the Emission max. was 533, the Excitation max. was 514 and the Stokes shift is given as 19 nm. Moreover, the ssDNA/dsDNA selectivity result in the data set on dsDNA [1] is “superior selectivity”. In the data set on ssDNA (20 mer), the “change of the emission intensity in the presence of ssDNA” value is “very little change” and the “Free dye rel. to ssDNA” value was determined as 0.95.

For `CN1C(=CC=Cc2cc[n+](CCC[N+](C)(C)C)c3ccccc23)Oc2ccccc21.[I-].[I-]` [YO-PRO-3 ™], in data set [6], the Emission max. was 631, the Excitation max. is listed as 612 and the Stokes shift is 19 nm.
